Where “and” joins values, the source holds several entries; their conditions need not be identical. Equal entries are not always repeated.
Experiments:
Format in all cases: biochemical
[1] = biological target: 321 human protein kinases (Homo sapiens, UniProt P42356); assay: Single-point broad panel kinome screening (SelectScreen Z'-LYTE and Adapta); conditions: PI4KA (PI4K alpha); […] LP-182; [ATP] 10 μM
Experimental: Quantitation of kinase inhibition was carried out by Life Technologies (Madison, WI) using the SelectScreen profiling platforms Z’-LYTE^TM and Adapta^TM. Single-point broad panel kinome screening was performed at 2.5 µM LP-182 against all kinases within the Z’-LYTE^TM and Adapta^TM assays (321 kinase isoforms, holoenzymes, or mutant variants). The average percent kinase inhibition from replicate data was ranked low to high, converted to a compatible identifier format, then input into Coral Human Kinome Visualization software for presentation analysis. […] Scaling of evolutionary distance for PI kinases is only relative and is based on literature analysis[62],[63]. Average percent kinome inhibition values from replicate data are supplied in Source Data file. […]. Corrected data was normalized to vehicle treated control values, and dose response percent kinase activity was analyzed by non-linear regression for determination of IC50 values.

MEK1 = MEK1 (Homo sapiens, UniProt Q02750); assay: Target kinase 10-point inhibition assay, MEK1; conditions: replicates
Source text: The average percent kinase inhibition from replicate data was ranked low to high, converted to a compatible identifier format, then input into Coral Human Kinome Visualization software for presentation analysis. […] Scaling of evolutionary distance for PI kinases is only relative and is based on literature analysis[62],[63]. Average percent kinome inhibition values from replicate data are supplied in Source Data file. […] Corrected data was normalized to vehicle treated control values, and dose response percent kinase activity was analyzed by non-linear regression for determination of IC50 values.

[2] = biological target: T1, Target kinase isoforms (PI3K, mTOR, RAF, MEK) (Homo sapiens, UniProt O00329); assay: Target kinase isoforms 10-point IC50 determination (Supplementary Fig. 7); conditions: PI3K delta
T1 sequence (O00329 1-1044): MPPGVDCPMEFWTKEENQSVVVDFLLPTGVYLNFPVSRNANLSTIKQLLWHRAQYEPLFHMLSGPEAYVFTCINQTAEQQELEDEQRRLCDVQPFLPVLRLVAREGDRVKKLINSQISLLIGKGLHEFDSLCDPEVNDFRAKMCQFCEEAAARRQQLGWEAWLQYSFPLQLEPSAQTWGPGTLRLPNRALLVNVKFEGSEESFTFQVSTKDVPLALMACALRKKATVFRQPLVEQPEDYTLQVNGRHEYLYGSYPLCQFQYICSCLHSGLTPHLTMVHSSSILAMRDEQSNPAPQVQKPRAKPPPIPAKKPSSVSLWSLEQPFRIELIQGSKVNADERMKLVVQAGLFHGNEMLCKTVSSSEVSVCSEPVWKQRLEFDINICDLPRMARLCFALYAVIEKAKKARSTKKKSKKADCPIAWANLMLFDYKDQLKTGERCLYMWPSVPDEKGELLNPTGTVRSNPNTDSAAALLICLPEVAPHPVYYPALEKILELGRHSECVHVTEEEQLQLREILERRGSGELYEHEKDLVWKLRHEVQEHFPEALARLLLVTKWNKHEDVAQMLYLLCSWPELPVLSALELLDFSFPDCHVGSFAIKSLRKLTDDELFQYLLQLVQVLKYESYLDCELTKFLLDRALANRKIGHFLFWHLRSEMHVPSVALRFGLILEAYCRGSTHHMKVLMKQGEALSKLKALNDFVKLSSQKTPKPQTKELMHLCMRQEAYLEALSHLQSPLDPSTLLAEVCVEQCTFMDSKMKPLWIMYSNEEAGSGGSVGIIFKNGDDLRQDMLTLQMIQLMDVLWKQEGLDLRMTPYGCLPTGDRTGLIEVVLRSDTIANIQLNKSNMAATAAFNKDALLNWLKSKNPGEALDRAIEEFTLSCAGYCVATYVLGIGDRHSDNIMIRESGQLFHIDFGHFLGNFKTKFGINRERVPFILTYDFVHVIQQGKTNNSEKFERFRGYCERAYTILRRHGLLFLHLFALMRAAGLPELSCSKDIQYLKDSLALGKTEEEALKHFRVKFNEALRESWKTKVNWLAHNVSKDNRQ
In short: (§1)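 Kinase activity across a 10-point dose series was corrected and normalized to vehicle-treated controls. IC50 values were derived by non-linear regression of percent activity. Kinome-wide percent inhibition was averaged over replicates.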

[3] = biological target: Target kinase isoforms (PI3K, mTOR, RAF, MEK) (Homo sapiens, UniProt P42336); assay: as above; conditions: PI3K alpha
In short: as §1

[4] = biological target: Target kinase isoforms (PI3K, mTOR, RAF, MEK) (Homo sapiens, UniProt P42338); assay: as above; conditions: PI3K beta
In short: as §1

[5] = biological target: Target kinase isoforms (PI3K, mTOR, RAF, MEK) (Homo sapiens, UniProt P42345); assay: as above; conditions: mTOR
In short: as §1

[6] = concentration 4.57 nM, 0.00457 µM
[7] = concentration 0.495 nM, 0.000495 µM
[8] = concentration 41.2 nM, 0.0412 µM
[9] = concentration 1.52 nM, 0.00152 µM

Chain of Target kinase isoforms (PI3K, mTOR, RAF, MEK) (Homo sapiens, UniProt P42338) (P42338 whole entry, canonical isoform): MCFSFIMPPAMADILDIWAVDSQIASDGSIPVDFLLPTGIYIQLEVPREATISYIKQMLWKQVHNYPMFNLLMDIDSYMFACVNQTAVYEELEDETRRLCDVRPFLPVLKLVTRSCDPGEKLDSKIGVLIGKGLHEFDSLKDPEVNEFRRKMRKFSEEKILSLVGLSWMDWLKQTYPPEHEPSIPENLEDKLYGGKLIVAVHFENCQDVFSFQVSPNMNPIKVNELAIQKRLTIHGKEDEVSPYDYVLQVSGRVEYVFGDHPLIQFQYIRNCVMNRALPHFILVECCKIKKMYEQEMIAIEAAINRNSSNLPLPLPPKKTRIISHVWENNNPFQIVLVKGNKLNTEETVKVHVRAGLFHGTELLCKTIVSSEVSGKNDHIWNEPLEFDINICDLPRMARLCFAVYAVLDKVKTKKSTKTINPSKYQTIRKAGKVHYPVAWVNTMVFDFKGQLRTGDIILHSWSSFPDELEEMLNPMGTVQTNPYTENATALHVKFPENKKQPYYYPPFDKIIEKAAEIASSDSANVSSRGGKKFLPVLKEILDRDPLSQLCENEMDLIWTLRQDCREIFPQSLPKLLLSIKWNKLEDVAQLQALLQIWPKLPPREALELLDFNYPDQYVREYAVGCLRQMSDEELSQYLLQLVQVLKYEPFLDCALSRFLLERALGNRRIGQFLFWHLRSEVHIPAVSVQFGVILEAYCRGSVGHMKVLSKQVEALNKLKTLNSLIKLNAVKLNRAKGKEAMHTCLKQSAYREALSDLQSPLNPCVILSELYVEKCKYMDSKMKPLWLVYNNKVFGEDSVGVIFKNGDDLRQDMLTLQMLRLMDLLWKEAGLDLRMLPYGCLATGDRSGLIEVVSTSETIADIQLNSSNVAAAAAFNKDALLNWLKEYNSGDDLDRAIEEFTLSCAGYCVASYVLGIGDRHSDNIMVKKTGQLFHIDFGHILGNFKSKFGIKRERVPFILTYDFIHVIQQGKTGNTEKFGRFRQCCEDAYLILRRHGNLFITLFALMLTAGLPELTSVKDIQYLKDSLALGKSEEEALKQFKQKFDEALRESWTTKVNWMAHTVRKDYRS
Chain of MEK1 (Q02750 whole entry): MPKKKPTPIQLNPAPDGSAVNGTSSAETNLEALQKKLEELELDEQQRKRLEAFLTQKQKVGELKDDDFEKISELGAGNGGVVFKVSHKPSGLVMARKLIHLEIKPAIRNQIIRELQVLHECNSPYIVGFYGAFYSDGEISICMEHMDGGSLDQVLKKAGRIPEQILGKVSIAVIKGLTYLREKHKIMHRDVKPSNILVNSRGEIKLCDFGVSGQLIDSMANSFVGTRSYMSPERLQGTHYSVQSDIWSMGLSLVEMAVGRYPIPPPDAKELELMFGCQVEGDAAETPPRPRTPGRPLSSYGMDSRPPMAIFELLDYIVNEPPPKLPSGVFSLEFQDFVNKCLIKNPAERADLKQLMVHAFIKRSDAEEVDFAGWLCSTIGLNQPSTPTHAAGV
Chain of Target kinase isoforms (PI3K, mTOR, RAF, MEK) (Homo sapiens, UniProt P42336) (P42336 whole entry, canonical isoform): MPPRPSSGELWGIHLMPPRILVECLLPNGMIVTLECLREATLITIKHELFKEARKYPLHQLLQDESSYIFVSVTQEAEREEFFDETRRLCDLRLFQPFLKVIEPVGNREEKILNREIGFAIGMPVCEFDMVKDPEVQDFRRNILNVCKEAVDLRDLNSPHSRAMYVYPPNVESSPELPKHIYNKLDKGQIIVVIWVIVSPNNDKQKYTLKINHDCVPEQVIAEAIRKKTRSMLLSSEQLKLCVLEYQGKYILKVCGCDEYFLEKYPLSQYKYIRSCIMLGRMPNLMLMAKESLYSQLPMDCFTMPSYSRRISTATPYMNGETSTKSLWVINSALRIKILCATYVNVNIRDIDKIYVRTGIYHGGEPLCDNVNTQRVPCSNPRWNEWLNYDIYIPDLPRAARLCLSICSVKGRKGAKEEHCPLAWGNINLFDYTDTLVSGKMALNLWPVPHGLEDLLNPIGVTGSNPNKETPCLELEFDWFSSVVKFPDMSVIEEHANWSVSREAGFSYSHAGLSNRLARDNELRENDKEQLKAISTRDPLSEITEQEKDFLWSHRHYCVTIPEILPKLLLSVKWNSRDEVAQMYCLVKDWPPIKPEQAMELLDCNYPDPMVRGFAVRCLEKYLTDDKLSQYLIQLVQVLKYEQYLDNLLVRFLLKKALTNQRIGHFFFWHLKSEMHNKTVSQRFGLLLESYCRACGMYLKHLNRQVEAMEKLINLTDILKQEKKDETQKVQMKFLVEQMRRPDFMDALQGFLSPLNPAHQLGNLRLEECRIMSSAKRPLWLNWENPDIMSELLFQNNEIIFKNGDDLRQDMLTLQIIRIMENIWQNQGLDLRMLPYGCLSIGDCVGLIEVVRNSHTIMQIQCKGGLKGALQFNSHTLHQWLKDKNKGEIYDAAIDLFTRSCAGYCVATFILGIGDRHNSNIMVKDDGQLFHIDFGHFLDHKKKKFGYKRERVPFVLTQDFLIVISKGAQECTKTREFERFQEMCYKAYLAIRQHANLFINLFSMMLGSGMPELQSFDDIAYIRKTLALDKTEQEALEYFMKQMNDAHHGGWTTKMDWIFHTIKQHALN
Chain of 321 human protein kinases (P42356 whole entry, canonical isoform): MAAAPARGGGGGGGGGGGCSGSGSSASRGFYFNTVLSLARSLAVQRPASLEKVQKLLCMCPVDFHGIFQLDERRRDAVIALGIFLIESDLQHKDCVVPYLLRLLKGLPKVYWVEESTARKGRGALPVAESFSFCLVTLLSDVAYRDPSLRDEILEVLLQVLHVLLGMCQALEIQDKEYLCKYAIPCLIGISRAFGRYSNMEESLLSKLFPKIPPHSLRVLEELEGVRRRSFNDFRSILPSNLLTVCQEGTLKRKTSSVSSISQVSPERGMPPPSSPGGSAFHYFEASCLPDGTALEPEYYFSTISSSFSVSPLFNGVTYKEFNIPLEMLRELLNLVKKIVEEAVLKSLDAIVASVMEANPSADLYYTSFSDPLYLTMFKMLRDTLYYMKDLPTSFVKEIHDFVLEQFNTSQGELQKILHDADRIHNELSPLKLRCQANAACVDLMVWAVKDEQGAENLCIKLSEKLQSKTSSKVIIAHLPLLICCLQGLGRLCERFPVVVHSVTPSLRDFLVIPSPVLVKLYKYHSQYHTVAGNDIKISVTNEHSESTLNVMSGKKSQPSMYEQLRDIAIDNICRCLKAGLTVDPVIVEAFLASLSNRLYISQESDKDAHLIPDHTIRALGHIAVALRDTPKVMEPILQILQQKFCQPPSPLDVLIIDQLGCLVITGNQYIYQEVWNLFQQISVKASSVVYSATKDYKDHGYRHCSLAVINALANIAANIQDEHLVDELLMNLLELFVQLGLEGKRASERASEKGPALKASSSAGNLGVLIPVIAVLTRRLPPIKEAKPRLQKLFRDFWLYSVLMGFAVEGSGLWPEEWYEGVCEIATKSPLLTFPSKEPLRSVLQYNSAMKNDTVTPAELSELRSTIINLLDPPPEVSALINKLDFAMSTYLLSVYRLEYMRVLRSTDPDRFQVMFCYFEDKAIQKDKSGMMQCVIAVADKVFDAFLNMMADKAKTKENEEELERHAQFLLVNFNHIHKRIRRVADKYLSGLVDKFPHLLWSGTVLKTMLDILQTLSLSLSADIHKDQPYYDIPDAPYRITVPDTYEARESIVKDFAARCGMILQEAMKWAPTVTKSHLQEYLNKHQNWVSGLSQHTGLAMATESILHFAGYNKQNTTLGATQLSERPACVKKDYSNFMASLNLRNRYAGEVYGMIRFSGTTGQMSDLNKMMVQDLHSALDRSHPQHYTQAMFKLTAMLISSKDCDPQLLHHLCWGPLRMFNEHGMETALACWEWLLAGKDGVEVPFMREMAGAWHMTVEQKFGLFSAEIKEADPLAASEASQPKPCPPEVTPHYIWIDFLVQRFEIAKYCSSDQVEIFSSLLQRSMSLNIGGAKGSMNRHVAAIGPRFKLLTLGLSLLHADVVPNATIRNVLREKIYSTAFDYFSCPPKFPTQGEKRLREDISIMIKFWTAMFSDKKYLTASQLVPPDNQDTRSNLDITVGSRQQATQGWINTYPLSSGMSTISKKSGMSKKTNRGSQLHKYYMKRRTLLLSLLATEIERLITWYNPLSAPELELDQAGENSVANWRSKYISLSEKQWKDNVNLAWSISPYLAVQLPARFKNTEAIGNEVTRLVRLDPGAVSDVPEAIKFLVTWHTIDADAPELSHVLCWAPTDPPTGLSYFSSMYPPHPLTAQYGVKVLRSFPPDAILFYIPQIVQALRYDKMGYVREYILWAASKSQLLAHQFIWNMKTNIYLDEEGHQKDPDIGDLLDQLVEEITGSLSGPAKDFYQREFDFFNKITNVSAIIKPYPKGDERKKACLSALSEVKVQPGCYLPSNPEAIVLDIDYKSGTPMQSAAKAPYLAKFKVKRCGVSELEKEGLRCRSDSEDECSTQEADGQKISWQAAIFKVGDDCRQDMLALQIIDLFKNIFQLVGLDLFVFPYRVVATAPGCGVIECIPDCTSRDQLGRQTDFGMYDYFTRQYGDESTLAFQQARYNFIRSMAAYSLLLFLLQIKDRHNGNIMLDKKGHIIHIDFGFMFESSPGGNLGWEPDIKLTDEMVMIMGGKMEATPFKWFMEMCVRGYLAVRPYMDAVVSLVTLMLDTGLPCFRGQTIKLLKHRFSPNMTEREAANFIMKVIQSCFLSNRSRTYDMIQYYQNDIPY

## O=C(NOCCOCCOCCOCCC(=O)N1CCN(c2cnc3ccc(-c4cnc(Cl)c(NS(=O)(=O)c5ccc(F)cc5)c4)cc3n2)CC1)c1ccc(F)c(F)c1Nc1ccc(I)cc1F [LP-182, N-(2-(2-(2-(3-(4-(7-(6-chloro-5-((4-fluorophenyl)sulfonamido)pyridin-3-yl)quinoxalin-2-yl)piperazin-1-yl)-3-oxopropoxy)ethoxy)ethoxy)ethoxy)-3,4-difluoro-2-((2-fluoro-4-iodophenyl)amino)benzamide]
[1]
  inhibition at […]: 24%
MEK1; MEK1, 0.495 nM
  activity at 0.000495 µM: 91%
MEK1; MEK1, 0.495 nM, 0.000495 µM
  Kinase Activity (%): 94% and 100% (2×) and 98% (2×) and 87%
MEK1; MEK1, 1.52 nM
  activity at 0.00152 µM: 89%
MEK1; MEK1, 1.52 nM, 0.00152 µM
  Kinase Activity (%): 94% (2×) and 102% (2×)
MEK1; MEK1, 4.57 nM
  activity at 0.00457 µM: 92%
MEK1; MEK1, 4.57 nM, 0.00457 µM
  Kinase Activity (%): 77% and 86% and 84% and 81%
MEK1; MEK1, 41.2 nM, 0.0412 µM
  Kinase Activity (%): 47% and 49% and 69% and 72% and 79% and 86% and 76% and 73%
MEK1; MEK1, 123 nM, 0.123 µM
  Kinase Activity (%): 26% and 22% and 46% and 50% and 53% and 57% and 54% and 49%
MEK1; MEK1, 1110 nM, 1.11 µM
  Kinase Activity (%): 0% and 3% (3×) and 8% (2×) and 9% (2×) and 5% and 12%
MEK1; MEK1, 3330 nM, 3.33 µM
  Kinase Activity (%): -1% and 1% (2×) and 2% (2×) and 3% (3×) and 4% and 0%
MEK1; MEK1, 10000 nM, 10 µM
  Kinase Activity (%): 0% and -2% (2×) and 8% and 9% and 4% and 2% and -1% and 3% (2×)
MEK1; MEK1, concentration 0.495 nM
  activity at 0.000495 µM: 90%
MEK1; MEK1, concentration 0.495 nM, 0.000495 µM
  Kinase Activity (%): 100% (2×) and 98% (2×)
MEK1; MEK1, concentration 1.52 nM
  activity at 0.00152 µM: 99%
MEK1; MEK1, concentration 1.52 nM, 0.00152 µM
  Kinase Activity (%): 94% (2×) and 102% (2×)
MEK1; MEK1, concentration 4.57 nM
  activity at 0.00457 µM: 95%
MEK1; MEK1, concentration 41.2 nM
  activity at 0.0412 µM: 65%
MEK1; MEK1, concentration 123 nM
  activity at 0.123 µM: 43%
MEK1; MEK1, concentration 370 nM
  activity at […]: 15%
MEK1; MEK1, concentration 1110 nM, 1.11 µM
  Kinase Activity (%): 9% (2×) and 3% (3×) and 8% (2×)
MEK1; MEK1, concentration 3330 nM, 3.33 µM
  Kinase Activity (%): 2% (2×) and 1% (2×) and 3% (3×)
MEK1; MEK1, concentration 10000 nM, 10 µM
  Kinase Activity (%): 3% (2×) and -2% (2×)
[2]; concentration 0.0187 nM, 18.7 pM
  Kinase Activity (%) PI3K delta: 95% and 92% and 102% and 111% and 107%
[2]; concentration 0.0562 nM, 56.2 pM
  Kinase Activity (%) PI3K delta: 105% and 92% and 107% and 113% and 96%
[2]; concentration 0.495 nM
  activity at 0.000495 µM: 83%
[2]; concentration 1.52 nM
  activity at 0.00152 µM: 71%
[2]; [6]
  Kinase Activity (%) PI3K delta: 44%
[2]; concentration 1110 nM, 1.11 µM
  Kinase Activity (%) PI3K delta: 6% and 2% and 7% and 4%
[2]; concentration 3330 nM
  activity at 3.33 µM: 5%
[2]; concentration 3330 nM, 3.33 µM
  Kinase Activity (%) PI3K delta: 6%
[2]; concentration 10000 nM, 10 µM
  Kinase Activity (%) PI3K delta: 6% and 8% and 0% and 10% and 7%
[3]; concentration 0.0188 nM, 18.8 pM
  Kinase Activity (%) PI3K alpha: 97% and 99% and 100% and 98% and 76% and 90%
[3]; concentration 0.0564 nM, 56.4 pM
  Kinase Activity (%) PI3K alpha: 93% and 98% and 99% and 108% and 106% and 80% and 82% and 89%
[3]; [7]
  Kinase Activity (%) PI3K alpha: 79%
[3]; concentration 4.57 nM
  activity at 0.00457 µM: 27%
[3]; [8]
  Kinase Activity (%) PI3K alpha: 4% and 6% and 8% and 9% and 5% and 10% and 7%
[3]; concentration 123 nM, 0.123 µM
  Kinase Activity (%) PI3K alpha: 1% and 3% and 4% and 2% and 6%
[3]; concentration 1110 nM, 1.11 µM
  Kinase Activity (%) PI3K alpha: 0% and 1%
[3]; concentration 3330 nM, 3.33 µM
  Kinase Activity (%) PI3K alpha: 1% and 0% and 2%
[3]; concentration 10000 nM, 10 µM
  Kinase Activity (%) PI3K alpha: 5% and 0% and 3% and 1%
[4]; [7]
  Kinase Activity (%) PI3K beta: 105% and 85% and 110% and 102% and 121% and 113%
[4]; [9]
  Kinase Activity (%) PI3K beta: 95% and 99% and 101% and 103% and 119% and 118%
[4]; [6]
  Kinase Activity (%) PI3K beta: 89% and 94% and 105% and 106% and 117% and 114%
[4]; [8]
  Kinase Activity (%) PI3K beta: 80% and 74% and 95% and 101% and 98% and 107%
[4]; concentration 123 nM, 0.123 µM
  Kinase Activity (%) PI3K beta: 63% and 51% and 71% and 72% and 84%
[4]; concentration 3330 nM
  activity at 3.33 µM: 16%
[4]; concentration 3330 nM, 3.33 µM
  Kinase Activity (%) PI3K beta: 24% and 12% and 13% and 14%
[4]; concentration 10000 nM, 10 µM
  Kinase Activity (%) PI3K beta: 13% and 5% and 3%
[5]; concentration 0.495 nM
  activity at 0.000495 µM: 95%
[5]; [7]
  Kinase Activity (%) mTOR: 99% and 98% and 101% and 94% and 96%
[5]; concentration 1.52 nM
  activity at 0.00152 µM: 97%
[5]; [9]
  Kinase Activity (%) mTOR: 99% and 100% and 94%
[5]; concentration 4.57 nM
  activity at 0.00457 µM: 91%
[5]; [6]
  Kinase Activity (%) mTOR: 92% and 94% and 87% and 88%
[5]; concentration 41.2 nM
  activity at 0.0412 µM: 52%
[5]; [8]
  Kinase Activity (%) mTOR: 63% and 57% and 47%
[5]; concentration 123 nM
  activity at 0.123 µM: 29%
[5]; concentration 123 nM, 0.123 µM
  Kinase Activity (%) mTOR: 30% and 32% and 31%
[5]; concentration 370 nM
  activity at […]: 13%
[5]; concentration 1110 nM, 1.11 µM
  Kinase Activity (%) mTOR: 4% and 3% and 5% and 1% and 2%
[5]; concentration 3330 nM, 3.33 µM
  Kinase Activity (%) mTOR: 0% and -1% and -2%
[5]; concentration 10000 nM, 10 µM
  Kinase Activity (%) mTOR: 2% and -1% and 1%

— PMC9386018, “A lymphatic-absorbed multi-targeted kinase inhibitor for myelofibrosis therapy” (Nature Communications, 2022)
